Assay results taken from patent publication EP4741395A1, “NOVEL COMPOUND SENSITIVE TO NITROGEN MONOXIDE AND PHARMACEUTICAL COMPOSITION COMPRISING SAME” (Omniamed Co. Ltd, priority 2023, dated 2025).

Experiments:
[1] = test system: splenocytes; test: NO scavenging activity in Concanavalin A-treated splenocytes (Griess assay); type: cell-based, C57BL/6 mouse; conditions: Mus musculus, Splenocyte, Concanavalin A 5 µg/mL, 72 hours, read-out: NO Scavenging Activity (%) (Mean±SD)
Description: (§1) A spleen was isolated from an 8-week-old C57BL/6 mouse, and splenocytes were isolated using a physical method.
(§2) The separated splenocytes were diluted to a concentration of 5×10^6 cells/mL in a RPMI 1640 medium including 10% FBS, 100 U/mL of penicillin and 100 µg/mL of streptomycin, and the diluted splenocytes were dispensed at 500 µL/well into a 48-well plate and 100 µL/well into a 96-well plate, and cultured for 72 hours in an incubator. The splenocytes were treated with Concanavalin A (5 µg/mL) when dispensed to induce an immune response, and herein, […] of the pharmaceutical composition including the compound according to each of the Examples was also added thereto. After 72 hours, the supernatant was collected, and the level of remaining NO was checked through a Griess assay, and calculated by the following Equation 4.

[2] = test system: splenocytes; test: Inhibitory activity on cell proliferation in splenocytes (CCK-8 analysis); type: cell-based, C57BL/6 mouse; conditions: Mus musculus, Splenocyte, Concanavalin A 5 µg/mL, 72 hours, read-out: Inhibitory Activity on Cell Proliferation (%) (Mean±SD)
[3] = test system: IFN-γ; test: IFN-γ reduction activity in Concanavalin A-treated splenocytes (quantitative ELISA); type: cell-based, C57BL/6 mouse; conditions: Mus musculus, Splenocyte, Concanavalin A 5 µg/mL, 72 hours, read-out: IFN-γ Reduction Activity (%) (Mean±SD)
Description: as §1, §2
NO is one of important inflammatory mediators, and may increase the level of inflammatory cytokine. Concanavalin A (5 µg/mL), which induces an immune response in splenocytes, and the compound of each of Examples were treated in a concentration-dependent manner to check whether the level of IFN-γ, a representative inflammatory cytokine, was reduced. The supernatant was collected 72 hours after the treatment, and analyzed using a quantitative enzyme-linked immunosorbent assay (Quantitative-ELISA).

[4] = test system: Raw 264.7 cell line; test: NO scavenging activity in LPS-treated immune cells (Griess reagent); type: cell-based; conditions: Mus musculus, RAW264.7, Raw 264.7, LPS 500 ng/mL, 24 hours, read-out: NO Scavenging Activity (%) (Mean±SD)
Description: Raw 264.7 cell line was seeded in a 48-well plate at a density of 8×10^4 cells/well, and cultured at 37°C in a DMEM medium including 10% FBS, 100 U/mL of penicillin and 100 µg/mL of streptomycin.
The medium was cultured overnight, and then replaced with a fresh medium including 10 µM of the pharmaceutical composition sensitive to nitrogen monoxide including the compound of each of Examples 1 to 30 and 500 ng/mL of LPS, and the fresh medium was cultured again for another 24 hours.
Lastly, in order to measure the amount of NO produced, the amount of NO2^- present in the cell culture medium was measured using a Griess reagent (sulfanilamide, N-1-naphthylethylenediamine dihydrochloride). Specifically, 100 µL of a Griess reagent was mixed with a mixture solution of 50 µL of the cell culture medium and 50 µL of PBS. The mixture solution was reacted for 10 minutes in a well plate, and absorbance thereof at 540 nm was measured.

[5] = molecular target: JAK 1 (Homo sapiens, UniProt P23458); test: JAK Human TK kinase enzymatic radiometric assay (Eurofins), JAK 1; conditions: value close to 100 indicates low JAK activity of the compound
Description: For the compounds of the Examples, JAK activity of each of the compounds was verified using the JAK Human TK Kinase Enzymatic Radiometric Kinase Profiler Assay service provided by Eurofins Scientific.
The activity was verified after inducing a reaction at the JAK 1, 2 and 3 active sites using radioactively labeled ATP.

[6] = DAF-2 assay of NO scavenging activity (NO donor SNAP); type: biochemical; conditions: DAF-2 10 µM, SNAP 100 µM, PBS, 3 hours, 37°C
Description: NO scavenging activity of the pharmaceutical composition sensitive to nitrogen monoxide including the compound according to each of Examples 1 to 22, 29 to 31, and 33 to 35 was evaluated through a DAF-2 assay.
Specifically, a reagent stock solution was made using DMSO (dimethyl sulfoxide) in order to prepare 5 mM of DAF-2, 100 mM of SNAP and 5 mM of the compound synthesized in each of the Examples, and for the reaction, the solution was added to a PBS (phosphate buffered saline) solution so that DAF-2, SNAP and the compound had final concentrations of 10 µM, 100 µM and the concentration of Table 1, respectively, followed by a reaction for 3 hours in a 37°C incubator.

Sequence of JAK 1 (P23458 whole entry): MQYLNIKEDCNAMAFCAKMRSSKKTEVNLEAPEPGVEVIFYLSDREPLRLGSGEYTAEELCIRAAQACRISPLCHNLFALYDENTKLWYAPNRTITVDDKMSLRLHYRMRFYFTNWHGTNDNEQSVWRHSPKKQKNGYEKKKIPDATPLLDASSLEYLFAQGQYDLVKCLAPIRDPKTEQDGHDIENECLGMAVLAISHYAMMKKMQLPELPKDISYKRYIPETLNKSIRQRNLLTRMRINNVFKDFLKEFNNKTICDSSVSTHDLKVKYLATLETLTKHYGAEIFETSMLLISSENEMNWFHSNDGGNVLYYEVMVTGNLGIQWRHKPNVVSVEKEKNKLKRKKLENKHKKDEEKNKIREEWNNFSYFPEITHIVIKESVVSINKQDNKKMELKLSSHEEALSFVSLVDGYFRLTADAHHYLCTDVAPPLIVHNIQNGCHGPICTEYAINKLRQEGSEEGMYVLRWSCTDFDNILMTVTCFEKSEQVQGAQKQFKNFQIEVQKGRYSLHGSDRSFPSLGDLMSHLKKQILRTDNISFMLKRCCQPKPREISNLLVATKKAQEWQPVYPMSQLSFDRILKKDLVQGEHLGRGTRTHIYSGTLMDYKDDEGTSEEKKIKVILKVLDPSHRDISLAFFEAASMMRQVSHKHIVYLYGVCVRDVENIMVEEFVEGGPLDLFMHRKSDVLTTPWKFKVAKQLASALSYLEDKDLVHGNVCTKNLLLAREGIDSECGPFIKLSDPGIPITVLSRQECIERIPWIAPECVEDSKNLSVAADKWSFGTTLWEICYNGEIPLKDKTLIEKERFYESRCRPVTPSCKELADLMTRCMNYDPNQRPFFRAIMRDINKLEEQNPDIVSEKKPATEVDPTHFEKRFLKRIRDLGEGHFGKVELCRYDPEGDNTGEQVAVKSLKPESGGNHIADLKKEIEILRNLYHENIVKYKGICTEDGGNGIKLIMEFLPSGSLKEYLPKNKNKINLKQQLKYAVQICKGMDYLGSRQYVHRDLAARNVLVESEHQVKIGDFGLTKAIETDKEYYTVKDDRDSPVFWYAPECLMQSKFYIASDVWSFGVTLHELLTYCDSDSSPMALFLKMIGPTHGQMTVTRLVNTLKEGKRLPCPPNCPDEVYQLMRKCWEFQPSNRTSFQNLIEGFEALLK

Row | JAK 1 Activity ([5]; 0.1 nM) | JAK 1 Activity ([5]; 1 nM) | JAK 1 Activity ([5]; 10 nM) | JAK 1 Activity ([5]; 100 nM) | SMILES | activity at 10 µM [1] [%] | inhibition at 10 µM [2] [%] | activity at 10 µM [3] [%] | activity at 10 µM [4] [%] | NO Scavenging Activity (%) (Mean±SD) ([6]; compound 1 µM) | NO Scavenging Activity (%) (Mean±SD) ([6]; compound 5 µM) | NO Scavenging Activity (%) (Mean±SD) ([6]; compound 10 µM)
1 |  |  |  |  | Cc1ccc(N)c(NC(=O)n2ccc3c(N(C)[C@H]4CN(C(=O)CC#N)CC[C@H]4C)ncnc32)c1 [Example 2, N-(2-amino-5-methylphenyl)-4-(((3R,4R)-1-(2-cyanoacetyl)-4-methylpiperidin-3-yl)(methyl)amino)-7H-pyrrolo[2,3-d]pyrimidine-7-carboxamide] | 94.3 ± 0.27 | 90.4 ± 4.69 | 95.2 ± 0.39 | 78.1 ± 0.21 |  |  | 
2 |  |  |  |  | Cc1ccc(NC(=O)n2ccc3c(N(C)[C@H]4CN(C(=O)CC#N)CC[C@H]4C)ncnc32)c(N)c1 [Example 3, N-(2-amino-4-methylphenyl)-4-(((3R,4R)-1-(2-cyanoacetyl)-4-methylpiperidin-3-yl)(methyl)amino)-7H-pyrrolo[2,3-d]pyrimidine-7-carboxamide] | 98.1 ± 0.34 | 76.2 ± 2.45 | 99.1 ± 0.61 | 95.4 ± 0.11 |  |  | 
3 |  |  |  |  | C[C@@H]1CCN(C(=O)CC#N)C[C@@H]1N(C)c1ncnc2c1ccn2C(=O)Nc1cc(N(C)C)ccc1N [Example 5, N-(2-amino-5-(dimethylamino)phenyl)-4-(((3R,4R)-1-(2-cyanoacetyl)-4-methylpiperidin-3-yl)(methyl)amino)-7H-pyrrolo[2,3-d]pyrimidine-7-carboxamide] | 94.1 ± 0.52 | 60.5 ± 5.48 | 96.1 ± 0.45 | 84.1 ± 0.01 |  |  | 
4 |  |  |  |  | C[C@@H]1CCN(C(=O)CC#N)C[C@@H]1N(C)c1ncnc2c1ccn2C(=O)Nc1cc2c(cc1N)n(C)c(=O)n2C [Example 10, N-(6-amino-1,3-dimethyl-2-oxo-2,3-dihydro-1H-benzo[d]imidazol-5-yl)-4-(((3R,4R)-1-(2-cyanoacetyl)-4-methylpiperidin-3-yl)(methyl)amino)-7H-pyrrolo[2,3-d]pyrimidine-7-carboxamide] | 77 ± 0.87 | 76.3 ± 2.45 | 93 ± 2.99 | 93.7 ± 0.11 |  |  | 
5 | 102 | 90 | 99 | 66 | Cc1ccc(NC(=O)N(C)CCN(C)C(=O)n2ccc3c(N(C)[C@H]4CN(C(=O)CC#N)CC[C@H]4C)ncnc32)c(N)c1 [Example 15, N-(2-(3-(2-amino-4-methylphenyl)-1-methylureido)ethyl)-4-(((3R,4R)-1-(2-cyanoacetyl)-4-methylpiperidin-3-yl) (methyl)amino)-N-methyl-7H-pyrrolo[2,3-d]pyrimidine-7-carboxamide] | 31.6 ± 0.16 | 22.6 ± 6.36 | 86.5 ± 0.29 | 54 ± 0.59 |  |  | 
6 | 101 | 104 | 98 | 59 | Cc1ccc(N)c(NC(=O)N(C)CCN(C)C(=O)n2ccc3c(N(C)[C@H]4CN(C(=O)CC#N)CC[C@H]4C)ncnc32)c1 [Example 16, N-(2-(3-(2-amino-5-methylphenyl)-1-methylureido)ethyl)-4-(((3R,4R)-1-(2-cyanoacetyl)-4-methylpiperidin-3-yl) (methyl)amino)-N-methyl-7H-pyrrolo[2,3-d]pyrimidine-7-carboxamide] | 27.1 ± 1.2 | 25 ± 5.67 | 81.4 ± 0.5 | 49.3 ± 0.23 |  |  | 
7 | 91 | 97 | 84 | 77 | C[C@@H]1CCN(C(=O)CC#N)C[C@@H]1N(C)c1ncnc2c1ccn2C(=O)N(C)CCN(C)C(=O)Nc1cc2c(cc1N)n(C)c(=O)n2C [Example 22, N-(2-(3-(6-amino-1,3-dimethyl-2-oxo-2,3-dihydro-1H-benzo[d]imidazol-5-yl)-1-methylureido)ethyl)-4-(((3R,4R)-1-(2-cyanoacetyl)-4-methylpiperidin-3-yl) (methyl)amino)-N-methyl-7H-pyrrolo[2,3-d]pyrimidine-7-carboxamide] | 45.9 ± 0.51 | 19.4 ± 0.21 |  | 31.3 ± 0.88 | 14.83 ±6.51 | 36.86 ±2.09 | 48.96 ±3.12
